Measurements taken from patent US7371773B2, “Breast cancer resistance protein (BCRP) inhibitor” (Kabushiki Kaisha Yakult Honsha, priority 2003, dated 2008).
Converted amounts (≈) assume the structure as drawn.

Test system: A549/SN-38-4 cell line
Test: Overcoming anticancer drug resistance of A549/SN-38-4 cell line
Type: cell-based, human
Conditions: Homo sapiens, A549; SN-38 resistance, concentration for 50% reduction of relative resistance value, 48 hours; read-out: Resistance overcoming effect EC50
Description: The effect of a diphenylacrylonitrile derivative on BCRP-mediated anticancer drug resistance was studied by use of the human lung cancer A549/SN-38-4 cell line, which had acquired anticancer drug resistance through BCRP expression. The human lung cancer A549 cell line or the A549/SN-38-4 cell line was suspended in 10% FBS/Ham's F-12, and the resultant suspension was inoculated into a 96-well microplate, followed by culturing at 5% CO2 and 37° C. overnight (2×10^3 cells/50 μL/well). Thereafter, a 10% FBS/Ham's F-12 solution (25 μL) containing a diphenylacrylonitrile derivative and SN-38 or mitoxantrone was added to each of the wells, followed by culturing at 5% CO2 and 37° C. for 48 hours. After completion of culturing, the number of viable cells was counted by use of TetraColor ONE according to the attached instruction manual. […] The greater the relative resistance value, the higher the level of acquired resistance.

Compound | EC50
COc1ccc(/C(C#N)=C/c2ccc(O)cc2)cc1OC.[Na] [Compound 17, (Z)-2-(3,4-dimethoxy-phenyl)-3-(4-hydroxy-phenyl)-acrylonitrile sodium salt] | 0.018 µg/mL
COc1ccc(/C(C#N)=C/c2ccc(F)cc2)cc1OC [Compound 18, (Z)-2-(3,4-dimethoxy-phenyl)-3-(4-fluoro-phenyl)-acrylonitrile] | 0.0063 µg/mL (≈ 0.0222 µM)
COc1ccc(/C(C#N)=C/c2ccc([N+](=O)[O-])cc2)cc1OC [Compound 19, (Z)-2-(3,4-dimethoxy-phenyl)-3-(4-nitro-phenyl)-acrylonitrile] | 0.019 µg/mL (≈ 0.0612 µM)
COc1ccc(/C(C#N)=C/c2ccccc2F)cc1OC [Compound 20, (Z)-2-(3,4-dimethoxy-phenyl)-3-(2-fluoro-phenyl)-acrylonitrile] | 0.053 µg/mL (≈ 0.187 µM)
COc1ccc(/C(C#N)=C/c2ccc(C#N)cc2)cc1OC [Compound 21, 4-[(Z)-2-cyano-2-(3,4-dimethoxy-phenyl)-vinyl]-benzonitrile] | 0.022 µg/mL (≈ 0.0758 µM)
COc1ccc(/C(C#N)=C/c2cccc(F)c2F)cc1OC [Compound 22, (Z)-3-(2,3-difluoro-phenyl)-2-(3,4-dimethoxy-phenyl)-acrylonitrile] | 0.022 µg/mL (≈ 0.073 µM)
COc1ccc(/C(C#N)=C/c2ccc(F)cc2F)cc1OC [Compound 23, (Z)-3-(2,4-difluoro-phenyl)-2-(3,4-dimethoxy-phenyl)-acrylonitrile] | 0.048 µg/mL (≈ 0.159 µM)
COc1ccc(/C(C#N)=C/c2cc(F)ccc2F)cc1OC [Compound 24, (Z)-3-(2,5-difluoro-phenyl)-2-(3,4-dimethoxy-phenyl)-acrylonitrile] | 0.0073 µg/mL (≈ 0.0242 µM)
COc1ccc(/C(C#N)=C/c2ccc(F)c(F)c2)cc1OC [Compound 25, (Z)-3-(3,4-difluoro-phenyl)-2-(3,4-dimethoxy-phenyl)-acrylonitrile] | < 0.005 µg/mL
COc1ccc(/C(C#N)=C/c2cc(F)cc(F)c2)cc1OC [Compound 26, (Z)-3-(3,5-difluoro-phenyl)-2-(3,4-dimethoxy-phenyl)-acrylonitrile] | < 0.005 µg/mL
COc1ccc(/C(C#N)=C/c2ccc(F)c(F)c2F)cc1OC [Compound 27, (Z)-2-(3,4-dimethoxy-phenyl)-3-(2,3,4-trifluoro-phenyl)-acrylonitrile] | 0.047 µg/mL (≈ 0.147 µM)
COc1ccc(/C(C#N)=C/c2cc(F)cc(F)c2F)cc1OC [Compound 28, (Z)-2-(3,4-dimethoxy-phenyl)-3-(2,3,5-trifluoro-phenyl)-acrylonitrile] | 0.011 µg/mL (≈ 0.0345 µM)
COc1ccc(/C(C#N)=C/c2c(F)ccc(F)c2F)cc1OC [Compound 29, (Z)-2-(3,4-dimethoxy-phenyl)-3-(2,3,6-trifluoro-phenyl)-acrylonitrile] | 0.1 µg/mL (≈ 0.313 µM)
COc1ccc(/C(C#N)=C/c2cc(F)c(F)cc2F)cc1OC [Compound 30, (Z)-2-(3,4-dimethoxy-phenyl)-3-(2,4,5-trifluoro-phenyl)-acrylonitrile] | 0.041 µg/mL (≈ 0.128 µM)
COc1ccc(/C(C#N)=C/c2cc(F)c(F)c(F)c2)cc1OC [Compound 31, (Z)-2-(3,4-dimethoxy-phenyl)-3-(3,4,5-trifluoro-phenyl)-acrylonitrile] | 0.015 µg/mL (≈ 0.047 µM)
COc1ccc(/C(C#N)=C/c2c(F)cccc2F)cc1OC [Compound 32, (Z)-3-(2,6-difluoro-phenyl)-2-(3,4-dimethoxy-phenyl)-acrylonitrile] | 0.15 µg/mL (≈ 0.498 µM)
COc1ccc(/C(C#N)=C/c2cccc([N+](=O)[O-])c2)cc1OC [Compound 33, (Z)-2-(3,4-dimethoxy-phenyl)-3-(3-nitro-phenyl)-acrylonitrile] | 0.019 µg/mL (≈ 0.0612 µM)

Compound | EC50
COc1ccc(/C(C#N)=C/c2ccc(N)cc2)cc1OC [Compound 34, (Z)-3-(4-amino-phenyl)-2-(3,4-dimethoxy-phenyl)-acrylonitrile] | 0.079 µg/mL (≈ 0.282 µM)
CCOC(=O)COc1ccc(/C=C(\C#N)c2ccc(OC)c(OC)c2)cc1 [Compound 35, ethyl [4-[(Z)-2-cyano-2-(3,4-dimethoxy-phenyl)-vinyl]-phenoxy]-acetate] | 0.37 µg/mL (≈ 1.01 µM)
COC(=O)c1ccc(/C=C(\C#N)c2ccc(OC)c(OC)c2)cc1 [Compound 36, methyl 4-[(Z)-2-cyano-2-(3,4-dimethoxy-phenyl)-vinyl]-benzoate] | 0.2 µg/mL (≈ 0.619 µM)
COc1ccc(/C(C#N)=C/c2ccccc2[N+](=O)[O-])cc1OC [Compound 37, (Z)-2-(3,4-dimethoxy-phenyl)-3-(2-nitro-phenyl)-acrylonitrile] | 0.085 µg/mL (≈ 0.274 µM)
COc1ccc(/C(C#N)=C/c2ccc(Cl)c([N+](=O)[O-])c2)cc1OC [Compound 38, (Z)-3-(4-chloro-3-nitro-phenyl)-2-(3,4-dimethoxy-phenyl)-acrylonitrile] | 0.037 µg/mL (≈ 0.107 µM)
COc1ccc(/C(C#N)=C/c2cc([N+](=O)[O-])ccc2F)cc1OC [Compound 39, (Z)-2-(3,4-dimethoxy-phenyl)-3-(2-fluoro-5-nitro-phenyl)-acrylonitrile] | 0.027 µg/mL (≈ 0.0822 µM)
CCOc1ccc(/C=C(\C#N)c2ccc(OC)c(OC)c2)cc1[N+](=O)[O-] [Compound 40, (Z)-2-(3,4-dimethoxy-phenyl)-3-(4-ethoxy-3-nitro-phenyl)-acrylonitrile] | 0.15 µg/mL (≈ 0.423 µM)
COC(=O)CCC(=O)Oc1ccc(/C=C(\C#N)c2ccc(OC)c(OC)c2)cc1 [Compound 41, 4-[(Z)-2-cyano-2-(3,4-dimethoxy-phenyl)-vinyl]-phenyl methyl succinate] | 0.041 µg/mL
CCOC(=O)CCC(=O)Oc1ccc(/C=C(\C#N)c2ccc(OC)c(OC)c2)cc1 [Compound 42, 4-[(Z)-2-cyano-2-(3,4-dimethoxy-phenyl)-vinyl]-phenyl ethyl succinate] | 0.038 µg/mL
COc1ccc(/C(C#N)=C/c2ccc(OC(=O)CCC(=O)Oc3ccc(/C=C(\C#N)c4ccc(OC)c(OC)c4)cc3)cc2)cc1OC [Compound 43, bis-{4-[(Z)-2-cyano-2-(3,4-dimethoxy-phenyl)-vinyl]-phenyl} succinate] | 0.12 µg/mL
COc1ccc(/C(C#N)=C/c2ccc(O)c([N+](=O)[O-])c2)cc1OC [Compound 45, (Z)-2-(3,4-dimethoxy-phenyl)-3-(4-hydroxy-3-nitro-phenyl)-acrylonitrile] | 0.13 µg/mL (≈ 0.398 µM)
COc1ccc(/C(C#N)=C/c2cc3c(cc2[N+](=O)[O-])OCO3)cc1OC [Compound 46, (Z)-2-(3,4-dimethoxy-phenyl)-3-(6-nitro-benzo[1,3]dioxol-5-yl)-acrylonitrile] | 0.58 µg/mL (≈ 1.64 µM)
COCCOCOc1ccc(/C(C#N)=C/c2ccc(OC)c(OC)c2)cc1 [Compound 47, (Z)-3-(3,4-dimethoxy-phenyl)-2-[4-(2-methoxy-ethoxymethoxy)-phenyl]-acrylonitrile] | 0.053 µg/mL (≈ 0.143 µM)
COc1ccc(/C=C(\C#N)c2ccc(O)cc2)cc1OC [Compound 48, (Z)-3-(3,4-dimethoxy-phenyl)-2-(4-hydroxy-phenyl)-acrylonitrile] | 0.013 µg/mL (≈ 0.0462 µM)
N#C/C(=C\c1ccc(O)cc1)c1cc(C(F)(F)F)cc(C(F)(F)F)c1 [Compound 49, (Z)-2-(3,5-bis-trifluoromethyl-phenyl)-3-(4-hydroxy-phenyl)-acrylonitrile] | 0.2 µg/mL (≈ 0.56 µM)
COc1ccc(/C(C#N)=C\c2ccc(O)cc2)cc1OC [Compound 50, (E)-2-(3,4-dimethoxy-phenyl)-3-(4-hydroxy-phenyl)-acrylonitrile] | 0.094 µg/mL (≈ 0.334 µM)
CCOc1ccc([N+](=O)[O-])cc1/C=C(\C#N)c1ccc(OC)c(OC)c1 [Compound 52, (Z)-2-(3,4-dimethoxy-phenyl)-3-(2-ethoxy-5-nitro-phenyl)-acrylonitrile] | 0.024 µg/mL (≈ 0.0677 µM)
